Test results reported in PubChem BioAssay AID256 (DTP/NCI, 2004).
Values joined by “and” are separate entries in the source; they are usually repeats but may differ in a detail not shown here. Identical values can stand only once. Inconclusive results and toxic doses are left out. How the source made its calls: active means survival T/C of 150% or more; inactive means T/C below 125% in these data.

System: CD2F1 mice, L1210 leukemia ip, survival T/C
Experiment: NCI In Vivo Anticancer Drug Screen. Data for tumor model L1210 Leukemia (intraperitoneal) in CD2F1 (CDF1) mice
Conditions: higher = longer survival
How it was run: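 Vehicle-treated tumor-bearing mice served as controls (C) for compound-treated mice (T). Reported figure is T divided by C.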

[1] = endpoint: mean survival time, dose: 25.0 mg/kg/injection, schedule: Q01DX009 (ip), vehicle: saline with Tween-80
[2] = endpoint: mean survival time, dose: 50.0 mg/kg/injection, schedule: Q01DX009 (ip), vehicle: saline with Tween-80
[3] = endpoint: mean survival time, dose: 100.0 mg/kg/injection, schedule: Q01DX009 (ip), vehicle: saline with Tween-80
[4] = endpoint: mean survival time, dose: 200.0 mg/kg/injection, schedule: Q01DX009 (ip), vehicle: saline with Tween-80
[5] = endpoint: mean survival time, dose: 400.0 mg/kg/injection, schedule: Q01DX009 (ip), vehicle: saline with Tween-80
[6] = endpoint: mean survival time, dose: 12.5 mg/kg/injection, schedule: Q01DX009 (ip), vehicle: saline with Tween-80

Measured: T/C

C1CCC2[N-]CCCC2C1.C1CCC2[N-]CCCC2C1.[Br][Pt+2][Br] (stereo not given)
inactive: endpoint: median survival time, dose: 3.12 mg/kg/injection, schedule: Q04DX003 (ip), vehicle: saline 105 % of control | endpoint: median survival time, dose: 6.25 mg/kg/injection, schedule: Q04DX003 (ip), vehicle: saline 117 % of control | endpoint: median survival time, dose: 12.5 mg/kg/injection, schedule: Q04DX003 (ip), vehicle: saline 114 % of control | endpoint: median survival time, dose: 25.0 mg/kg/injection, schedule: Q04DX003 (ip), vehicle: saline 103 % of control | endpoint: median survival time, dose: 50.0 mg/kg/injection, schedule: Q04DX003 (ip), vehicle: saline 102 % of control | endpoint: median survival time, dose: 100.0 mg/kg/injection, schedule: Q04DX003 (ip), vehicle: saline 104 % of control | endpoint: median survival time, dose: 200.0 mg/kg/injection, schedule: Q04DX003 (ip), vehicle: saline 95 % of control

BrCC[CH2][Sn]([Br])([Br])[Br]
inactive: endpoint: mean survival time, dose: 50.0 mg/kg/injection, schedule: Q01DX009 (ip), vehicle: saline 103 % of control | endpoint: mean survival time, dose: 100.0 mg/kg/injection, schedule: Q01DX009 (ip), vehicle: saline 91 % of control | endpoint: mean survival time, dose: 200.0 mg/kg/injection, schedule: Q01DX009 (ip), vehicle: saline 95 % of control

CCN(CC)CCN1CC2CCCCC2C1 (stereo not given)
inactive: [1] 100 % of control | [2] 100 % of control | [3] 98 % of control and 102 % of control

O=C(Nc1ccccc1)O/N=C(/c1ccccc1)c1cccnc1
inactive: endpoint: mean survival time, dose: 100.0 mg/kg/injection, schedule: Q01DX001 (ip), vehicle: other 104 % of control | endpoint: mean survival time, dose: 200.0 mg/kg/injection, schedule: Q01DX001 (ip), vehicle: other 104 % of control | endpoint: mean survival time, dose: 400.0 mg/kg/injection, schedule: Q01DX001 (ip), vehicle: other 98 % of control

O=C(O)C(Br)C(Br)c1ccccc1 (stereo not given)
inactive: [3] 92 % of control | [4] 93 % of control | [5] 93 % of control

CCOC(=O)Nc1ccccc1F
inactive: [3] 98 % of control | [4] 107 % of control | [5] 95 % of control

CCOC(=O)C(NCc1ccccc1)C(=O)OCC
inactive: endpoint: mean survival time, dose: 12.5 mg/kg/injection, schedule: Q01DX009 (ip), vehicle: water 96 % of control | endpoint: mean survival time, dose: 25.0 mg/kg/injection, schedule: Q01DX009 (ip), vehicle: water 98 % of control | endpoint: mean survival time, dose: 50.0 mg/kg/injection, schedule: Q01DX009 (ip), vehicle: water 101 % of control | endpoint: mean survival time, dose: 100.0 mg/kg/injection, schedule: Q01DX009 (ip), vehicle: water 93 % of control

Nc1cc2c(c[n+](CCCBr)c3ccccc23)c2ccccc12
inactive: endpoint: mean survival time, dose: 3.13 mg/kg/injection, schedule: Q04DX003 (ip), vehicle: other 111 % of control | endpoint: mean survival time, dose: 6.25 mg/kg/injection, schedule: Q04DX003 (ip), vehicle: other 122 % of control | endpoint: mean survival time, dose: 12.5 mg/kg/injection, schedule: Q04DX003 (ip), vehicle: other 120 % of control | endpoint: mean survival time, dose: 25.0 mg/kg/injection, schedule: Q04DX003 (ip), vehicle: other 109 % of control | endpoint: mean survival time, dose: 50.0 mg/kg/injection, schedule: Q04DX003 (ip), vehicle: other 87 % of control

CCOC(=O)c1cnc(SCc2ccccc2Cl)nc1N1CC1
inactive: endpoint: mean survival time, dose: 28.05 mg/kg/injection, schedule: Q01DX009 (ip), vehicle: saline with Tween-80 115 % of control

COc1ccccc1NC(N)=O
inactive: [3] 95 % of control | [4] 86 % of control | [5] 95 % of control

COc1cc2c[n+](C)c3c4cc5c(cc4ccc3c2cc1OC)OCO5
inactive: endpoint: mean survival time, dose: 1.0 mg/kg/injection, schedule: Q01DX009 (ip), vehicle: other 104 % of control | endpoint: mean survival time, dose: 1.0 mg/kg/injection, schedule: Q01DX009 (ip), vehicle: water 102 % of control and 104 % of control | endpoint: mean survival time, dose: 2.0 mg/kg/injection, schedule: Q01DX009 (ip), vehicle: other 109 % of control | endpoint: mean survival time, dose: 2.0 mg/kg/injection, schedule: Q01DX009 (ip), vehicle: water 117 % of control and 112 % of control | endpoint: mean survival time, dose: 4.0 mg/kg/injection, schedule: Q01DX009 (ip), vehicle: other 104 % of control | endpoint: mean survival time, dose: 4.0 mg/kg/injection, schedule: Q01DX009 (ip), vehicle: water 116 % of control and 120 % of control | endpoint: mean survival time, dose: 6.25 mg/kg/injection, schedule: Q01DX009 (ip), vehicle: saline with Tween-80 120 % of control | endpoint: mean survival time, dose: 8.0 mg/kg/injection, schedule: Q01DX009 (ip), vehicle: other 115 % of control | endpoint: mean survival time, dose: 8.0 mg/kg/injection, schedule: Q01DX009 (ip), vehicle: water 115 % of control and 121 % of control | endpoint: mean survival time, dose: 8.0 mg/kg/injection, schedule: Q04DX003 (ip), vehicle: water 108 % of control | [6] 114 % of control | endpoint: mean survival time, dose: 16.0 mg/kg/injection, schedule: Q01DX009 (ip), vehicle: other 116 % of control | endpoint: mean survival time, dose: 16.0 mg/kg/injection, schedule: Q01DX009 (ip), vehicle: water 118 % of control and 120 % of control | endpoint: mean survival time, dose: 16.0 mg/kg/injection, schedule: Q04DX003 (ip), vehicle: water 117 % of control | [1] 104 % of control | endpoint: mean survival time, dose: 32.0 mg/kg/injection, schedule: Q04DX003 (ip), vehicle: water 120 % of control | endpoint: mean survival time, dose: 40.0 mg/kg/injection, schedule: Q01DX009 (ip), vehicle: water 115 % of control and 116 % of control | [2] 98 % of control | endpoint: mean survival time, dose: 64.0 mg/kg/injection, schedule: Q04DX003 (ip), vehicle: water 121 % of control | endpoint: mean survival time, dose: 80.0 mg/kg/injection, schedule: Q01DX009 (ip), vehicle: water 103 % of control | endpoint: mean survival time, dose: 128.0 mg/kg/injection, schedule: Q04DX003 (ip), vehicle: water 101 % of control

CN(C)C(SCc1ccccc1)=[N+](C)C
inactive: endpoint: mean survival time, dose: 100.0 mg/kg/injection, schedule: Q04DX002 (ip), vehicle: saline with Tween-80 105 % of control | endpoint: mean survival time, dose: 200.0 mg/kg/injection, schedule: Q04DX002 (ip), vehicle: saline with Tween-80 94 % of control

COc1ccc(C(C)C(C)=O)cc1 (stereo not given)
inactive: [6] 91 % of control | [1] 91 % of control | [2] 95 % of control

COC1OCC(C(C)=O)C(O)C1O (stereo not given)
inactive: endpoint: mean survival time, dose: 100.0 mg/kg/injection, schedule: Q01DX001 (ip), vehicle: saline 101 % of control | endpoint: mean survival time, dose: 200.0 mg/kg/injection, schedule: Q01DX001 (ip), vehicle: saline 96 % of control | endpoint: mean survival time, dose: 400.0 mg/kg/injection, schedule: Q01DX001 (ip), vehicle: saline 95 % of control

CC(=O)C1=C(O)C(CSCc2ccccc2)N(C)C1=O (stereo not given)
inactive: endpoint: mean survival time, dose: 75.0 mg/kg/injection, schedule: Q01DX001 (ip), vehicle: other 95 % of control | endpoint: mean survival time, dose: 150.0 mg/kg/injection, schedule: Q01DX001 (ip), vehicle: other 92 % of control | endpoint: mean survival time, dose: 300.0 mg/kg/injection, schedule: Q01DX001 (ip), vehicle: other 91 % of control

Cn1nc(N)c2ncc(-c3ccc(Cl)cc3)nc21
inactive: endpoint: mean survival time, dose: 100.0 mg/kg/injection, schedule: Q04DX003 (ip), vehicle: alcohol 91 % of control | endpoint: mean survival time, dose: 200.0 mg/kg/injection, schedule: Q04DX003 (ip), vehicle: alcohol 89 % of control | endpoint: mean survival time, dose: 400.0 mg/kg/injection, schedule: Q04DX003 (ip), vehicle: alcohol 91 % of control
